≈ marks a conversion by molar mass, not a printed value. Entries after “also recorded” stand apart in the source; their conditions may differ. Numbered stars: 1 amine (or outer) side, 2 acyl side, 3 side chain; on linkers, the order of the positions; unused ones are H or OH. Bridge positions count the residues as written; N and C are the ends. Square brackets hold non-standard residues; d marks the D form. Peptide text beside a SMILES is read from it. * marks the point of attachment. Octanoyl(6-Me) = CCC(C)CCCCC(=O)*; NH(2-ClPh) = Clc1ccccc1N*; Dab = NCC[CH](N)C(=O)O; CO = O=C([*:1])[*:2]
What was measured:
Citrobacter spp. = assay: MIC90, broth microdilution, panel of Gram negative clinical isolates; format: cell-based; settings: 20 strains; some strains multi-drug resistant
Procedure: (§1) To evaluate the potency and spectrum of compounds of Formula (I), (i.e., Compounds designated 5 and 6), a study was conducted that put together a panel of 455 Gram negative strains, which included multi-drug resistant clinical isolates selected from various surveillance programs. Table 3A lists the strains that were included in the study and the activity of Compound 5, Compound 6, and colistin (polymyxin E, abbreviated PME). Strains with acquired resistance to colistin and/or carbapenems and/or broad spectrum cephalosporins were pre-selected and included in all organism groups evaluated.
(§2) MIC testing was performed according to Clinical and Laboratory Standards Institute (CLSI) M7-A7 (2006) broth microdilution methods. Unless otherwise indicated, MIC values are provided in units of micrograms per milliliter.
(§3) One day prior to testing, individual colonies were isolated by streaking onto rich, non-selective Tryptic Soy agar with 5% lysed sheeps blood (TSAB) with incubation at 35-37° C. for 18-24 hours.
(§4) Cultures were prepared by touching 3-5 colonies into 3 mL of Cation adjusted Mueller Hinton Broth (caMHB) in a 14 mL tube (CaMHB was prepared and sterilized according to manufacturer's specifications). Cultures were grown at 37° C. 200 rpm for approximately four hours prior to density adjustment for addition to the MIC assay.
(§5) OD600 of growing cultures was measured and adjusted to approximately 10^5 colony forming units per mL (CFU/mL) in caMHB for MIC inoculation (approximately OD600 0.001).
(§6) Diluted cultures were used to inoculate 50 μL per well in broth microdilution assays (final volume 100 μl per well; compounds were prepared in two-fold dilutions).
(§7) Plates were incubated 16-20 hrs at 37° C., with shaking at 200 rpm.
(§8) OD600 was determined for all wells. Growth was defined as OD600>0.1. MICs were defined as the lowest concentration producing no visible turbidity (OD600<0.1).

Enterobacter = assay: as above; format: cell-based; settings: 20 strains; some strains multi-drug resistant
Procedure: as §1, §2, §3, §4, §5, §6, §7, §8

Acinetobacter spp = assay: as above; format: cell-based; settings: 81 strains
Procedure: as §1, §2, §3, §4, §5, §6, §7, §8

cynomolgus monkeys = assay: Comparative 7 day repeat dose safety study, renal toxicity; format: in vivo, cynomolgus monkey; settings: for renal histologic findings: IV infusion; for nephrotoxicity compared with polymyxin B: equivalent antibacterial activity doses (75,000 to 112,500 IU/kg), FIG. 2
Procedure: A comparative 7 day repeat dose safety study in cynomologous monkeys between polymyxin B and Compound 5 was performed.
Animals were 2.52 kg to 3.77 kg and were 4.2 to 5.7 years old. During acclimation, a chronic femoral intravenous catheter was implanted into all animals to permit continuous infusion. The femoral vein catheter was routed subcutaneously to exit through a prepared incision in the interscapular region. Animals were fitted with jackets connected to flexible stainless steel tethers that protected the catheters.
Monkeys were dosed twice or three times daily for seven days with control article (0.9% Sodium Chloride for Injection, USP), 25000 IU/kg Compound 5, 37500 IU/kg Compound 5, or 37500 IU/kg PMB (Alpharma, lot number A1411079). Each administration was given via a targeted 30-minute intravenous infusion.
The following parameters were evaluated: daily clinical observations and qualitative food consumption, body weight (twice prior to the first dosing and at necropsy), urinalysis, hematology, coagulation, serum chemistry, toxicokinetics, gross pathology, organ weights, and histopathology of the kidneys and injection sites, and of the liver and sciatic nerves of control and high dose groups. Animals were evaluated through Study Day 7 and then terminated.
FIG. 2 is a scatter plot showing nephrotoxicity data measured as a cumulative score based upon tubular degeneration, tubular regeneration, tubular dilatation, and tubular casts. Each category was scored on a basis from 0 to 4 based on the severity of each finding.
For comparison of Compound 5 and polymyxin B, the nephrotoxicity was measured as a cumulative score based upon tubular degeneration, tubular regeneration, tubular dilatation, and tubular casts. Each category was scored on a basis from 0 to 4 based on the severity of each finding and individual monkeys are represented in the FIG. 2.

[1] = Cell culture cytotoxicity assay (ATP bioluminescence, LLC-PK1); format: cell-based, rat; settings: rat; read-out: EC50, rat kidney proximal tubule cell culture cytotoxicity assay
Procedure: Day 1: 1×10^5 to 2×10^5 cellswere inoculated (Cell line: LLC-PK1) per flask, containing 4 mL/T25 flask of medium DMEM-F12 (50/50) media supplemented with 10% FBS (Fetal Bovine Serum). The cells were then incubated at 37° C., 5% CO2, 80% RH.
Day 4: The cell cultures were examined to determine 80% confluency. To trypsinize of the 80% confluent flasks, 4 mL of DMEM-F12-10% FBS media was prepared per flask. The media was aspirated from the flask and 5 mL of Versene was added to rinse the flask. The Versene was aspirated and 2 mL of triple Express solution (trypsin solution) was added. The cells were incubated for 5 min at room temperature and examined via microscopy for the rounding of the cells and their detachment. To speed up the reaction, the flask can be incubated at 37° C. for 3 minutes. 4 mL of media (DMEM-F12-10%FBS) was added to stop the reaction. Using a 5 mL pipette, the completed reaction was pipetted up and down to ensure that the cells were properly detached from the flask and from each others. The cell number was counted using a hemocytometer slide. 100 μL of cell suspension was transferred to a tube and 100 μL of Trypan Blue was added. Inoculum for 96 well is 10,000 cells per well. For one 96 well plate, 26.3 μL×110 well=2893 μL total. 2.9 mL of cell suspension was mixed with 8.1 mL of media DMEM-F12-10% FBS and 100 μL was distributed to each well using a multichannel pipetter. The plate was then Incubated for 24 h at 37° C.
Day 5: DMEM-F12 (no FBS) medium was dispensed into tubes with the test article to achieve final concentrations of […]. The 96 well plate was taken off the incubator and media was removed from each well using multichannel pipetter. 80 μL of serially diluted compounds of Formula (I) was added to each well. Every set of concentration was done in triplicate. Media and positive controls were added to each plate and the plates were incubated for 24 hours at 37° C.
Day 6: The plates were taken from the incubator, the media was removed from each well, and 100 μL of fresh media DMEM-F12 (this is equivalent to a rinse and the media can be replaced with PBS) was added. The media is then removed and 80 μL of cell lysis solution is added. After 5 minutes, 80 μL of sterile filtered high quality water was added to each well. Using a white or black 96 well reaction plate, 80 μL of 25× diluted ATP mix reagent (Sigma Bioluminescent Somatic Cell Assay Kit [cat #FL-ASC]) was added into one column. 80 μL of diluted ATP standards (dilutions used: 250, 500, 1000, 2000 and 4000) was added and the plate was read immediately in the topcount with a 2 second read time. In another white or black 96 well reaction plate, 80 μL of 25× diluted ATP mix reagent (plate A) was added and 80 μL of lysis-water solution was transferred to each column of plate A. The plate was then read immediately in the topcount with a 2 second read time. This process was repeated for next consecutive plate and the EC50 for certain compounds of Formula I were calculated and provided in Table 4.

E. coli = assay: MIC90, broth microdilution, panel of Gram negative clinical isolates; format: cell-based, Escherichia coli; settings: 80 strains; some strains multi-drug resistant
Procedure: as §1, §2, §3, §4, §5, §6, §7, §8

Row | SMILES | MIC90 Citrobacter spp. (Citrobacter spp.) [micrograms/mL] | MIC90 Enterobacter (Enterobacter) [micrograms/mL] | MIC90 Acinetobacter spp (Acinetobacter spp) [micrograms/mL] | renal histologic findings (cynomolgus monkeys; 75,000 IU/kg/day, 7 days) | renal histologic findings (cynomolgus monkeys; 112,500 IU/kg/day, 7 days) | nephrotoxicity compared with polymyxin B (cynomolgus monkeys) | nephrotoxicity compared with polymyxin B (cynomolgus monkeys; listed as compound 5) | EC50 at 24 h [1] [µg/mL] | MIC90 E. coli (E. coli) [micrograms/mL] | serum creatinine and BUN concentrations (cynomolgus monkeys; 75,000 IU/kg/day, 7 days) | serum creatinine and blood urea nitrogen concentrations (cynomolgus monkeys; 112,500 IU/kg/day, 7 days)
1 | CC(C)C[C@@H]1NC(=O)[C@@H](Cc2ccccc2)NC(=O)[C@H](CCN)NC(=O)[C@@H](NC(=O)[C@H](CCN)NC(=O)[C@@H](NC(=O)[C@H](CCN)NC(=O)Nc2ccccc2Cl)[C@@H](C)O)CCNC(=O)[C@H]([C@@H](C)O)NC(=O)[C@H](CCN)NC(=O)[C@H](CCN)NC1=O [Compound 5, (S)-4-amino-N-((2S,3R)-1-((S)-4-amino-1-oxo-1-((3S,6S,9S,12S,15R,18S,21S)-6,9,18-tris(2-aminoethyl)-15-benzyl-3-((R)-1-hydroxyethyl)-12-isobutyl-2,5,8,11,14,17,20-heptaoxo-1,4,7,10,13,16,19-heptaazacyclotricosan-21-ylamino)butan-2-ylamino)-3-hydroxy-1-oxobutan-2-yl)-2-(3-(2-chlorophenyl)ureido)butanamide] ({NH(2-ClPh)-CO}-[Dab]T[Dab][Dab][Dab][dF]L[Dab][Dab]T; lactam 4-C) | 0.5 | >16 | 4 | very minimal histologic changes | increases in numbers and severity of cortical and medullary tubules containing necrotic or degenerative cells | notably less severe nephrotoxicity; also recorded: markedly less nephrotoxic | reduced renal toxicity | > 1000 | 2 |  | 
2 | CCC(C)CCCCC(=O)NC(CCN)C(=O)NC(C(=O)NC(CCN)C(=O)NC1CCNC(=O)C(C(C)O)NC(=O)C(CCN)NC(=O)C(CCN)NC(=O)C(CC(C)C)NC(=O)C(Cc2ccccc2)NC(=O)C(CCN)NC1=O)C(C)O (stereo not drawn) [Polymyxin B, polymyxin B, reference compound] ({Octanoyl(6-Me)}-[Dab]T[Dab][Dab][Dab]FL[Dab][Dab]T; lactam 4-C; configuration not given here) | 1 | >64 | 2 | renal tubular histology similar to findings from animals receiving 112,500 IU/kg/day of Compound 5 | involvement of a majority of cortical and some medullary tubules containing necrotic or degenerate cells |  |  | 318 (≈ 264 µM) | 2 | mild increases | elevations

From patent US8343912B2, “Antibiotic compositions for the treatment of gram negative infections” (priority 2008, dated 2013)
